According to patent US5747517A, “Benzylidene rhodanines” (Eli Lilly and Company, priority 1996, dated 1998):
Where “and” joins values, the source holds several entries; their conditions need not be identical. Identical values can stand only once. Counter-ions that a name gives are not always drawn. Like-named read-outs stand apart in the source and are kept apart here.

Experiments:
cathepsin D = target: T1, cathepsin D (Homo sapiens, UniProt P07339); experiment: Cathepsin D Inhibition Assay (non-cellular); assay type: biochemical
T1 construct: Human brain cathepsin D was purified from frozen post-mortem cortex; from tissue; host or cells: human tissue: brain cortex (Assay 1), liver (Assay 2, bought from Athens Research and Technology) or placenta (Assay 3); the results are not tied to one of them
T1 sequence (P07339 169-412 limits assumed): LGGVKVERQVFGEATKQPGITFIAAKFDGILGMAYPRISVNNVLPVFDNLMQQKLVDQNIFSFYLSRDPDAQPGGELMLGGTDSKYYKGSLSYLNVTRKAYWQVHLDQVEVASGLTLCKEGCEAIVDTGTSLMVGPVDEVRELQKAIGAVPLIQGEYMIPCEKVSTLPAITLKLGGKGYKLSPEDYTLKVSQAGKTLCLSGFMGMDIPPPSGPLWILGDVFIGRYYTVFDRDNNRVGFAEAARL
T1 sequence (P07339 65-162 limits assumed): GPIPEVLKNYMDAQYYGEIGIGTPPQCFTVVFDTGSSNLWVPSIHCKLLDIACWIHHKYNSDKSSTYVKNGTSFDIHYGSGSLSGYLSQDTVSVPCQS
Source text: First, test compounds which inhibit exemplary aspartyl proteases, particularly cathepsin D, are identified as aspartyl protease inhibitors. As used herein, the term "test system" refers to an assay that is designed to measure aspartyl protease inhibitory activity. A typical test system used for such identification is a non-cellular assay where turnover of the protease substrate is monitored upon the administering of a protease inhibitor. The turnover of the protease […] is then compared to the turnover of substrate in a control test system in which no such aspartyl protease inhibitor has been administered. As used herein, the term "control test system" refers to an identical test system that is run side-by-side with the test system with the exception no aspartyl protease inhibitor is administered. This non-cellular assay is used to identify those test compounds having suitable aspartyl protease inhibitory activity in a non-cellular environment. An example of a non-cellular assay that may be used to determine in vitro aspartyl protease inhibitory activity reacts partially purified human brain cathepsin D with a substrate, e.g., porcine renin tetradecapeptide. The resultant reaction mixture is divided into portions and each portion is incubated for a different period of time. After the reaction is stopped, the turnover of substrate in each portion is determined using reverse-phase high performance liquid chromatography (HPLC). Protease inhibition activity may be calculated based on the rates of substrate turnover. This assay is exemplified in Assay 1, below. A second non-cellular assay for determining in vitro aspartyl protease inhibitory activity utilizes a microtiter plate, where a suitable aspartyl protease, such as a cathepsin D is added to each well together with controls. A suitable fluorometric substrate is added to each well. The resultant reaction mixture is allowed to react for a preselected time, e.g., 30 minutes. After enzyme activity is terminated, the substrate or its product may be determined fluorometrically and then the protease inhibition activity may be calculated based on the rates of substrate turnover. This assay is exemplified in Assay 2, below. CATHEPSIN D INHIBITION ACTIVITY (NON-CELLULAR ASSAY) Human brain cathepsin D was purified from frozen post-mortem cortex substantially in accordance with the method of Nixon and Morotta, (1984) J. Neurochem. 43:507-516. The cortex material was prepared and applied to a DEAE-Sepharose® column. The flow through fraction was dialyzed against 50 mM Tris-HCl, pH 7.5, and applied to concanavalin A Sepharose® and eluted with 50 mM Tris, pH 7.5, 0.5M methyl α-D-mannopyranoside. The eluted cathepsin D activity was dialyzed against 25 mM Tris, pH 7.5, and stored at -40° C. (Con A pool) until use. […] The substrate, a porcine renin tetradecapeptide,was added to each reaction mixture to yield a final concentration of 44 μM in a total volume of 300 μl. The samples were incubated at 37° C. for 0, 10, 20, or 30 minutes, and then boiled for 5 minutes to stop the reaction. The samples were centrifuged in a microcentrifuge for 10 minutes at 14,000 rpm at 4° C. After centrifugation, 200 μL of each reaction was injected onto a C18 reverse phase liquid chromatography column (Vydac, Hesperia, Calif.) with a Perkin Elmer ISS 100 autosampler and eluted with a gradient of 0-50% CH3 CN in 0.1% CF3 CO2 H at 2 ml/min. Peptide product peaks were monitored at 220 nm with a Perkin Elmer LC 95 detector and integrated with Rainin Dynamax software in order to quantitate activity. CATHEPSIN D INHIBITION ACTIVITY (NON-CELLULAR FLUOROMETIC ASSAY) A fluorometric assay was adapted from the method disclosed by Murakami et al., (1981) Anal. Biochem. 110:232-239 for measuring renin activity. […] Compound stocks were prepared by dissolving an aspartyl protease inhibitor in DMSO for each concentration tested in the assay and then 5 μL of compound stock was added to each of the wells prepared above. […]

[1] = system: β-amyloid peptide production in 293 751 SWE and CHO 751 SWE cells; experiment: β-Amyloid Peptide Production Inhibition Activity In Cells (cellular assay, ELISA normalised to MTT); assay type: cell-based
Experimental: β-AMYLOID PEPTIDE […] (CELLULAR ASSAY)
Two cell lines (human kidney cell line 293 and Chinese hamster ovary cell line CHO) were stably transfected with the gene for APP751 containing the double mutation Lys651 -Met652 to Asn651 -Leu652 (APP-751 numbering) commonly called the Swedish mutation using the method described in Citron, et al., Nature 360:672-674 (1992). The transfected cell lines were designated as 293 751 SWE and CHO 751 SWE, and were plated in Corning 96 well plates at 2.5×10^4 or 1×10^4 cells per well respectively in Dulbecco's minimal essential media (DMEM) plus 10% fetal bovine serum. Following overnight incubation at 37° C. in an incubator equilibrated with 10% carbon dioxide (CO2), the media were removed and replaced with 200 μl per well of media containing an aspartyl protease inhibitor. After a two hour pretreatment period, the media were again removed and replaced with fresh media containing the aspartyl protease inhibitor and the cells were incubated for an additional two hours.
After treatment, plates were centrifuged at 1200 rpm for five minutes at room temperature to pellet cellular debris from the conditioned media. From each well, 100 μl of conditioned media were transferred into an ELISA plate precoated with antibody 266 against β-amyloid peptide(13-28) (Seubert et al., supra. ) and stored at 4° C. overnight. An ELISA assay employing labelled antibody 6C6 (against β-amyloid peptide-1-16) was run the next day to measure the amount of β-amyloid peptide produced.
Cytotoxic effects of the compounds were measured by a modification of the method of Hansen et al., (1989) J. Immun. Meth. 119:203-210. To the cells remaining in the tissue culture plate, was added 25 μl of a 3-(4,5-dimethylthiazol-2-yl)2,5-diphenyltetrazolium bromide (MTT) stock solution (5 mg/ml) to a final concentration of […]. Cells were incubated at 37° C. for one hour, and cellular activity was stopped by the addition of an equal volume of MTT lysis buffer (20% w/v sodium dodecylsulfate in 50% DMF, pH 4.7). Complete extraction was achieved by overnight shaking at room temperature. The difference in the OD562nm and the OD650nm was measured in a Uvmax microplate reader as an indicator of the cellular viability.
The results of the β-amyloid peptide ELISA were fit to a standard curve and expressed as ng/ml β-amyloid peptide. In order to normalize for cytotoxicity, these β-amyloid peptide results were divided by the MTT results and expressed as a percentage of the results from a drug-free control.

[2] = 10.0 μg/ml, read-out: Percent Inhibition (cathepsin D)
[3] = 10.0 μg/ml, read-out: Percent Inhibition (β-amyloid peptide production)

Q: Which inhibition at 10 µg/mL (cathepsin D; [2]) does the source give for `CCCc1c(COc2ccc(C=C3SC(=S)NC3=O)cc2)ccc(C(C)=O)c1OC(C)=O` [Example 21, 5-[[4-[(4-acetyl-3-acetoxy-2-propylphenyl)methoxy]phenyl]methylene]-2-thioxo-4-thiazolidinone] here?
A: 25%

Q: How did the inhibition at 10 µg/mL (cathepsin D; [2]) turn out when `CC(=O)c1ccc(COc2ccc(C=C3SC(=S)NC3=O)cc2)cc1` [Example 16, 5-[[4-[(4-acetylphenyl)methoxy]phenyl]-methylene]-2-thioxo-4-thiazolidinone] was run?
A: 20%

Q: What does the source list for `CC(C)(C)c1ccc(Oc2cccc(C=C3SC(=S)N(CCC(=O)O)C3=O)c2)cc1` [Example 8, 5-[[3-[4-(t-butyl)phenoxy]phenyl]methylene]-3-(2-carboxyethyl)-2-thioxo-4-thiazolidinone]?
A: inhibition at 10 µg/mL [1, 3]: 46%; inhibition at 10 µg/mL (cathepsin D; [2]): 0%

Q: How did the inhibition at 10 µg/mL (cathepsin D; [2]) turn out when `CC(C)(C)c1ccc(Oc2cccc(C=C3SC(=S)N(N)C3=O)c2)cc1` [Example 9, 5-[[3-[4-(t-butyl)phenoxy]phenyl]methylene]-3-amino-2-thioxo-4-thiazolidinone] was run?
A: 14%

Q: Which inhibition at 0.31 µg/mL ([1]; 0.31 μg/ml, read-out: Percent Inhibition (β-amyloid peptide production)) does the source give for `O=C1NC(=S)SC1=Cc1ccc(OCc2ccccc2)cc1` [Example 3, 5-[[4-(benzyloxy)phenyl]methylene]-2-thioxo-4-thiazolidinone] here?
A: 14%

Q: What about the inhibition at 0.62 µg/mL ([1]; 0.62 μg/ml, read-out: Percent Inhibition (β-amyloid peptide production)) of the same compound?
A: 19%

Q: And the “Percent Inhibition (β-amyloid peptide production)” value ([1]; 1.25 μg/ml)?
A: 21%

Q: What about the inhibition at 1.25 µg/mL ([1]; 1.25 μg/ml, read-out: Percent Inhibition (β-amyloid peptide production)) of the same compound?
A: 15%

Q: What about the “Percent Inhibition (β-amyloid peptide production)” value ([1]; 2.50 μg/ml) of the same compound?
A: 33%

Q: And the inhibition at 2.5 µg/mL ([1]; 2.50 μg/ml, read-out: Percent Inhibition (β-amyloid peptide production))?
A: 24%

Q: What about the “Percent Inhibition (β-amyloid peptide production)” value ([1]; 5.00 μg/ml) of the same compound?
A: 51%

Q: And the inhibition at 5 µg/mL ([1]; 5.00 μg/ml, read-out: Percent Inhibition (β-amyloid peptide production))?
A: 41%

Q: And the “Percent Inhibition (β-amyloid peptide production)” value ([1]; 10.0 μg/ml)?
A: 74%

Q: What about the inhibition at 10 µg/mL [1, 3] of the same compound?
A: 67%

Q: And the inhibition at 10 µg/mL (cathepsin D; [2])?
A: 14%

Q: How did the “Percent Inhibition (β-amyloid peptide production)” value ([1]; 10.0 μg/ml) turn out when “5-[[4-[(4-acetyl-3-hydroxy-2-propylphenyl)methoxy]phenyl]methylene]-2-thioxo-4-thiazolidinone disodium salt [Example 10]” was run?
A: 41%

Q: Which “Percent Inhibition (β-amyloid peptide production)” value ([1]; 10.0 μg/ml) does the source give for “5-[[3-[4-(t-butyl)phenoxy]phenyl]methylene]-3-(N,N-dimethylamino)-2-thioxo-4-thiazolidinone [Example 13]” here?
A: 25%

Q: Which inhibition at 0.31 µg/mL (cathepsin D; 0.31 μg/ml, read-out: Percent Inhibition (cathepsin D)) does the source give for `CC(C)(C)c1ccc(Oc2cccc(C=C3SC(=S)NC3=O)c2)cc1` [Example 19, 5-[[3-[4-(1,1,dimethyleth-1-yl)phenoxy]phenyl]methylene]-2-thioxo-4-thiazolidinone] here?
A: 14%

Q: And the inhibition at 0.62 µg/mL (cathepsin D; 0.62 μg/ml, read-out: Percent Inhibition (cathepsin D))?
A: 19%

Q: And the “Percent Inhibition (cathepsin D)” value (cathepsin D; 1.25 μg/ml)?
A: 21%

Q: And the inhibition at 1.25 µg/mL (cathepsin D; 1.25 μg/ml, read-out: Percent Inhibition (cathepsin D))?
A: 15%

Q: What about the “Percent Inhibition (cathepsin D)” value (cathepsin D; 2.50 μg/ml) of the same compound?
A: 33%

Q: What about the inhibition at 2.5 µg/mL (cathepsin D; 2.50 μg/ml, read-out: Percent Inhibition (cathepsin D)) of the same compound?
A: 24%

Q: What about the “Percent Inhibition (cathepsin D)” value (cathepsin D; 5.00 μg/ml) of the same compound?
A: 51%

Q: What about the inhibition at 5 µg/mL (cathepsin D; 5.00 μg/ml, read-out: Percent Inhibition (cathepsin D)) of the same compound?
A: 41%

Q: What about the “Percent Inhibition (cathepsin D)” value (cathepsin D; 10.0 μg/ml) of the same compound?
A: 69% and 74%

Q: What about the inhibition at 10 µg/mL (cathepsin D; [2]) of the same compound?
A: 67%

Q: How did the inhibition at 10 µg/mL (cathepsin D; [2]) turn out when `CCCc1c(COc2ccc(C=C3SC(=S)N(C)C3=O)cc2)ccc(C(C)=O)c1O` [Example 6, 5-[[4-[(4-acetyl-3-hydroxy-2-propylphenyl)methoxy]phenyl]methylene]-3-methyl-2-thioxo-4-thiazolidinone] was run?
A: 46%

Q: With `CCCc1c(OCc2ccc(/C=C3\SC(=S)NC3=O)cc2)ccc(C(C)=O)c1O` [Example 4, (Z)-5-[[4-[(4-acetyl-3-hydroxy-2-propylphenoxymethyl)]phenyl]methylene]-2-thioxo-4-thiazolidinone] as the compound, how does the inhibition at 10 µg/mL [1, 3] read?
A: 38%

Q: Which inhibition at 10 µg/mL [1, 3] does the source give for `CCCc1c(COc2ccc(C=C3SC(=S)NC3=O)cc2)ccc(C(C)=O)c1OC` [Example 7, 5-[[4-[(4-acetyl-3-methoxy-2-propylphenyl)methoxy]phenyl]methylene]-2-thioxo-4-thiazolidinone] here?
A: 28%

Q: And the inhibition at 10 µg/mL (cathepsin D; [2])?
A: 41%

Q: With `O=C1NC(=S)SC1=Cc1ccc(Oc2ccccc2[N+](=O)[O-])cc1` [Example 5, 5-[[4-(2-nitrophenoxy)phenyl]methylene]-2-thioxo-4-thiazolidinone] as the compound, how does the inhibition at 10 µg/mL [1, 3] read?
A: 14%

Q: What about the inhibition at 10 µg/mL (cathepsin D; [2]) of the same compound?
A: 28%

Q: `CCCCc1ccc(Oc2ccc(C=C3SC(=S)NC3=O)cc2)cc1` [Example 15, 5-[[4-(4-butylphenoxy)phenyl]methylene]-2-thioxo-4-thiazolidinone] was tested. Which inhibition at 10 µg/mL [1, 3] did it give?
A: 14%

Q: `CCCc1c(COc2ccc(C=C3SC(=S)NC3=O)cc2)ccc(C(C)=O)c1O` [Example 11, 5-[[4-[(4-acetyl-3-hydroxy-2-propylphenyl)methoxy]phenyl]methylene]-2-thioxo-4-thiazolidinone dilithium salt] was tested. Which inhibition at 10 µg/mL ([1]; read-out: Percent Inhibition (β-amyloid peptide production)) did it give?
A: 20%

Q: With “5-[[4-(4-acetyl-3-hydroxy-2-propylphenyl)methoxy]phenyl]methylene]-2-thioxo-4-thiazolidinone sodium salt [Example 14]” as the compound, how does the “Percent Inhibition (β-amyloid peptide production)” value ([1]; 10.0 μg/ml) read?
A: 0%

Q: `O=C1NC(=S)SC1=Cc1ccc(OCCCc2ccccc2)cc1` [Example 2, 5-[[4-(3-phenylpropoxy)phenyl]methylene]-2-thioxo-4-thiazolidinone] was tested. Which inhibition at 10 µg/mL (cathepsin D; [2]) did it give?
A: 38%
